Several values for one entry are separate records, joined by “and”; a condition that tells them apart may be missing. Equal entries are not always repeated.
Assays:
[1] = tested on: silver nitrate-induced arthritic rats; test: Rat model of silver nitrate-induced arthritic pain (pain score, weight-bearing rate); type: in vivo
Text: The silver nitrate-induced arthritic pain model is known as a subacute arthritis model, in which the inflammatory response and pain last for at least 3 days following injury. This model involves the activation of prostaglandin pathways and has been used for evaluating the analgesic effects of various NSAIDs or kappa-opioid receptor agonist. Overall, 136 male Sprague-Dawley (SD) rats were obtained from Charles River Laboratories Japan Inc. General anesthesia was maintained by the inhalation of isoflurane (Forane; Dainippon Sumitomo Pharma Co., Ltd., Osaka, Japan). Silver nitrate solution (1%, Wako Pure Chemical Industries, Ltd., Osaka, Japan) at a volume of 50 μL/joint was injected in the knee joint cavity of the left hindlimbs of rats. Animals with no abnormalities were allocated to four groups in each study based on the weight-bearing rate of the inflamed joints and pain score at the time of allocation, by using stratified continuous randomization. Test substances were administered on the day following the arthritis induction. In the first study, SI-613 (contents of DF; 11.8% (w/w), manufactured by Seikagaku Corporation, Tokyo, Japan) at doses of 0.05, 0.15, and 0.5 mg/50 μL/joint (5.9, 17.7, and 59 μg/joint in DF equivalent) or phosphate-buffered saline (PBS) was once injected into the joint cavities of the left hindlimbs for the dose-response assessments.
In the second study, SI-613 (0.5 mg/joint, 59 μg/joint in DF equivalent), HA (0.5 mg/joint, Seikagaku Corporation), a mixture of DF-Na (59 μg/joint, Wako Pure Chemical Industries, Ltd.) and HA (0.5 mg/joint) (DF-Na + HA), or PBS was administered in the same manner for the proof of concept. The doses of DF-Na and HA were set at those of respective components in SI-613 formulation. The DF-Na solution (1 mg/mL) was prepared using the Water for Injection (Otsuka Pharmaceutical Factory, Inc., Tokyo, Japan) and administered orally at a dose of 2 mg/kg (approximately 0.3 mg/body) once daily for 3 days. The oral DF-Na dose, 2 mg/kg, was set in accordance with the dose for adult humans with a body weight of 50 kg, on the assumption that the maximum daily dose in clinical practice administered to patients with OA or rheumatoid arthritis would be 100 mg. It has been reported that DF-Na exerted anti-inflammatory effects in rats when administered at this dose.
Pain was assessed under blinded conditions by scoring pain-related behaviors based on the following criteria and measuring the weight-bearing rates of hindlimbs with a load-measuring device (Tokken Inc., Chiba, Japan) at a same time each day for 3 days after the injection of the test materials.
The criteria for assigning pain scores were as follows: 0; normal, 1; mild claudication with lifting the foot, 2; severe claudication with completely closing the toe, 3; walking on three legs. The weight-bearing rate was calculated using the following formula:
Weight-bearing rate (%) = Mean weight-bearing load on inflamed leg (g) / Body weight (g) × 100.

[2] = tested on: PGE2 content in the synovial fluid; test: PGE2 content in the synovial fluid of silver nitrate-induced arthritic rats; type: in vivo, rat
Procedure: In addition, the prostaglandin E2 (PGE2) content, which plays a critical role in inducing inflammation and pain associated with arthritis, was determined in the synovial fluid (SF). Briefly, SI-613 (0.5 mg/joint) or PBS was administered into the joint cavity of the left hindlimb. After assessing the severity of pain, animals were sacrificed by exsanguination under 2% isoflurane anesthesia 1, 2 and 3 days after administration, respectively. The SF was collected by washing the joint cavity with saline (Otsuka Pharmaceutical Factory, Inc.) containing indomethacin (Indacin, MSD K. K., Tokyo, Japan), which was effective to prevent joint puncturing-induced production of PGE2 (unpublished result). The PGE2 content in the SF was measured with a High Sensitivity PGE2 Correlate-EIA kit (Assay Designs Inc., Ann Arbor, MI).

PGE2 content in the SF = PGE2 content in the SF of rabbits with antigen-induced arthritis; type: in vivo, rabbit; conditions: for production of PGE2 in the SF, group comparison: 72 h after administration
Procedure: To prepare the anesthetic, saline (2 mL), midazolam (1 mL, 5 mg/mL, Astellas Pharma Inc., Tokyo, Japan), xylazine (2 mL, 0.02 g/mL, Bayer Medical Ltd., Tokyo, Japan), and butorphanol tartrate (1 mL, 5 mg/mL, Meiji Seika Kaisha, Ltd., Tokyo, Japan) were mixed. The anesthetic was administered intravenously to each animal at a volume of 1 mL/body. OVA (Sigma-Aldrich Co., St. Louis, MO) emulsion with Freund's complete adjuvant (FCA; CAPPEL Laboratories Inc., Cochranville, PA) was injected intradermally into the backs of 80 male rabbits at a dose of 5 mg/animal twice at an interval of 13 or 14 days. Twenty-three days after the first immunization, 1% OVA solution was injected in the joint cavities of the left hindlimb at a volume of 500 μL/joint to induce arthritis. […] Animals were sacrificed by exsanguination under 2% isoflurane anesthesia 3 and 72 h after administration, respectively. The SF was collected by washing the joint cavity twice with saline (Otsuka Pharmaceutical Factory, Inc.) containing 20 μg/mL of indomethacin ([…] K. K.) at 3 or 72 h after the administration of the test materials. The PGE2 content in the SF was determined as a mechanism biomarker for the anti-inflammatory effect using a High Sensitivity Prostaglandin E2 Enzyme Immunoassay Kit (Assay Designs Inc.).

[3] = tested on: antigen-induced arthritic rabbits; test: Knee joint swelling of antigen-induced arthritic rabbits (long-lasting anti-inflammatory effect); type: in vivo, rabbit; conditions: single IA 5 mg/joint
Procedure: The duration and efficacy of the anti-inflammatory effect of SI-613 was studied in OVA-induced arthritis rabbits. Two days after the arthritis induction, the knee joint diameter in all 60 rabbits was measured with a digital thickness gauge (Teclock Corp., Nagano, Japan). The joint swelling was expressed as the difference in millimeters between the inflamed (left) and non-inflamed (right) knee joint diameters. The same researcher evaluated the knee joint swelling on all groups on all days. Fifteen animals (knee joint swelling was not more than 7.30 mm) and 5 animals (knee joint swelling was not less than 10.40 mm) were excluded. Forty animals were divided into two groups of 20 animals each by the stratified random sampling method based on the knee joint swelling and body weight of the day, and were administered with 5 mg/joint SI-613 or PBS at a volume of 500 μL/joint into the joint cavities. The knee joint swelling was evaluated the day before (day 0), and on days 1, 3, 7, 14, 21, 28, 35, and 42 after a single injection of the test materials. The knee joint swelling was expressed as the difference in the width of the right and left knee joint.

[4] = Distribution of DF in knee tissues after a single administration, short-term study (LC-MS/MS); type: in vivo, rabbit; conditions: individual animals, free DF
Procedure: Two days after the induction of arthritis, 5 mg/joint SI-613, a mixture of 0.59 mg/joint DF-Na and 5 mg/joint HA (DF-Na + HA), or PBS was administered to the knee joint cavity at a volume of 500 μL/joint. DF-Na was orally administered at a dose of 2 mg/kg. The concentrations of free DF in the synovium and synovial lavage fluid were measured by high performance liquid chromatography coupled with tandem mass spectrometry (LC-MS/MS) at 3 and 72 h after a single IA administration and after a single oral administration of the test materials, respectively. Moreover, plasma concentrations of DF were determined to compare the systemic exposure of DF after the administration of SI-613 with that of the other compounds. The synovium was homogenized in 40-fold volume (40 mL for 1 g tissue) of 10 mM ammonium formate (pH 6.0)/methanol (3:2, v/v) on an ice bath. Then, free DF in the homogenate was extracted with tert-butyl methyl ether-1% acetic acid (6:1, v/v). Free DF in the synovial fluid or plasma was adsorbed to an Oasis HLB cartridge (30 mg/1 cm^3, Waters Corporation, Milford, MA) and eluted with methanol. The internal standard of deuterium-labeled diclofenac (diclofenac-d7) was added to each sample. The extract was loaded onto a CAPCELL PAK C18 MG HPLC column (Shiseido Co. Ltd., Tokyo, Japan, column size: 4.6 mm × 35 mm, particle size: 5 μm) at 40 °C, and eluted with 10 mM ammonium formate (pH 6.0)/methanol (2:3, v/v) at a flow rate of 0.5 mL/minute. For mass detection, we used a QTRAP® 5500 System (AB SCIEX, Framingham, MA) equipped with an electrospray ionization (ESI) source in positive ions in multiple reaction monitoring (MRM) mode. Linear calibration (r > 0.999) was attained at 5–1000 ng/g for the synovium and at 1–200 ng/mL for the synovial fluid and plasma.

[5] = Plasma DF concentrations of rabbits with antigen-induced arthritis; type: in vivo, rabbit
Procedure: Arthritis was induced in the 12 rabbits as described above. Two days after the induction of arthritis, 5 mg/joint SI-613, a mixture of 0.59 mg/joint DF-Na and 5 mg/joint HA (DF-Na + HA), or PBS was administered to the knee joint cavity at a volume of 500 μL/joint. DF-Na was orally administered at a dose of 2 mg/kg. The concentrations of free DF in the synovium and synovial lavage fluid were measured by high performance liquid chromatography coupled with tandem mass spectrometry (LC-MS/MS) at 3 and 72 h after a single IA administration and after a single oral administration of the test materials, respectively. Moreover, plasma concentrations of DF were determined to compare the systemic exposure of DF after the administration of SI-613 with that of the other compounds. The synovium was homogenized in 40-fold volume (40 mL for 1 g tissue) of 10 mM ammonium formate (pH 6.0)/methanol (3:2, v/v) on an ice bath. Then, free DF in the homogenate was extracted with tert-butyl methyl ether-1% acetic acid (6:1, v/v). Free DF in the synovial fluid or plasma was adsorbed to an Oasis HLB cartridge (30 mg/1 cm^3, Waters Corporation, Milford, MA) and eluted with methanol. The internal standard of deuterium-labeled diclofenac (diclofenac-d7) was added to each sample. The extract was loaded onto a CAPCELL PAK C18 MG HPLC column (Shiseido Co. Ltd., Tokyo, Japan, column size: 4.6 mm × 35 mm, particle size: 5 μm) at 40 °C, and eluted with 10 mM ammonium formate (pH 6.0)/methanol (2:3, v/v) at a flow rate of 0.5 mL/minute. For mass detection, we used a QTRAP® 5500 System (AB SCIEX, Framingham, MA) equipped with an electrospray ionization (ESI) source in positive ions in multiple reaction monitoring (MRM) mode. Linear calibration (r > 0.999) was attained at 5–1000 ng/g for the synovium and at 1–200 ng/mL for the synovial fluid and plasma. The extraction efficiencies of diclofenac were 84.2–92.9% for the synovium, 95.2–100.3% for the synovial fluid, and 94.2–96.5% for the plasma.
Time for calculation of area under the DF plasma concentration-time curve (AUC0-t), t (day), was the latest time point at which DF was quantifiable. The half-life (T1/2) was determined by semi-log plotting the data of at least three time points after Tmax.

[6] = DF in knee tissues after a single IA administration of SI-613, long-term study (LC-MS/MS); type: in vivo, rabbit; conditions: single IA 5 mg/joint
Procedure: Arthritis was induced in the 24 rabbits as described above. Two days after the induction of arthritis in the rabbits, 5 mg/joint SI-613 or PBS was administered at a volume of 500 μL/joint into the knee joint cavity. Concentrations of DF in the synovium and synovial lavage fluid were measured by LC-MS/MS on days 1, 3, 7, 14, 21, 28, 35, and 42 after a single IA administration.

[7] = second study, single IA 0.5 mg/joint, compared with PBS, HA, DF-Na + HA or repeated oral DF-Na
[8] = sampling point 72 h, oral 2 mg/kg or single IA, 2 mg/kg
[9] = sampling point 72 h, oral 2 mg/kg or single IA

With “N-[2-[[2-[2-[(2,6-dichlorophenyl)amino]phenyl]acetyl]oxy]ethyl]hyaluronamide [SI-613]” the “analgesic effect (pain score)” value ([1]; PGE2 study, IA 0.5 mg/joint, days 1, 2 and 3) was “confirmed each day”, the pain behavioral score ([1]; first study, single IA 0.05, 0.15 and 0.5 mg/joint, vs control (PBS), mean of 3 days) was “improved the pain behavioral scores significantly” and the weight-bearing rate ([1]; first study, single IA 0.15 and 0.5 mg/joint, vs control, mean of 3 days) was “significantly increased the weight-bearing rates”. The pain behavioral score [1, 7] was “significantly improved the pain behavioral score”, the weight-bearing rate [1, 7] was “increased the weight-bearing rate” and the “PGE2 content in the SF vs control” value ([2]; IA 0.5 mg/joint, days 1, 2 and 3) was “lower PGE2 content than the control group”. The “PGE2-inhibitory effect, statistical significance vs control” value ([2]; rat model, 72 h after administration) was “no statistically significant difference”, the “production of PGE2 in the SF, group comparison” value (PGE2 content in the SF) was “significantly suppressed” and the “knee joint swelling compared with the control” value ([3]; day 1 until day 28) was “significantly decreased”. The “knee joint swelling compared with the control” value ([3]; day 35 and day 42) was “no significant difference”, the “Concentration of DF Synovial lavage fluid” value [4, 8] was 60.64 ng/mL fluid and 38.82 ng/mL fluid and 1540 ng/mL fluid and the “Concentration of DF Synovium” value [4, 8] was 15.23 ng/g tissue and 45.47 ng/g tissue and 351.1 ng/g tissue. The “plasma AUC0-t of DF, times smaller than DF-Na + HA group (IA)” value ([5]; SI-613 IA vs DF-Na + HA IA) was 16 times, the “plasma Cmax of DF, times lower than DF-Na + HA group (IA)” value ([5]; SI-613 IA vs DF-Na + HA IA) was 94 times and the “plasma AUC0-t of DF, times smaller than DF-Na group (oral)” value ([5]; SI-613 IA vs DF-Na oral) was 187 times. For the same compound, the “plasma Cmax of DF, times lower than DF-Na group (oral)” value ([5]; SI-613 IA vs DF-Na oral) was 462 times, the “mean amount of DF in the joint cavity lavage fluid” value ([6]; day 21) was 5.940 ng/joint and the “DF in the joint cavity lavage fluid” value ([6]; day 28) was < 1 ng of DF per mL of synovial lavage fluid. The “mean DF concentration in the synovium” value ([6]; day 28) was 9.754 ng/g.
In the case of O=C(O)Cc1ccccc1Nc1c(Cl)cccc1Cl [DF-Na, diclofenac sodium], the “mean PGE2 content in the SF” value (PGE2 content in the SF; 3 h after administration, DF-Na oral 2 mg/kg) is reported as 3767 pg/joint, the “production of PGE2 in the SF compared with the control group” value (PGE2 content in the SF; 3 h after administration, oral 2 mg/kg) is reported as “significantly suppressed” and the “production of PGE2 in the SF, group comparison” value (PGE2 content in the SF) is reported as “No significant differences”. The “Concentration of DF Synovial lavage fluid” value ([4]; sampling point 3 h) was 124.6 ng/mL fluid and 58.23 ng/mL fluid and 45.66 ng/mL fluid, the “Concentration of DF Synovium” value ([4]; sampling point 3 h) was 155.8 ng/g tissue and 52.88 ng/g tissue and 75.83 ng/g tissue and the “Concentration of DF Synovial lavage fluid” value [4, 9] was “BLQ2 (< 1 ng of DF per mL of synovial lavage fluid)”. The “Concentration of DF Synovium” value [4, 9] was “BLQ1 (below limit of quantification, < 5 ng/g)”, the AUC(0-inf) ([5]; rabbit, plasma, po, 2 mg/kg, mean ± SD, read-out: AUC0-∞ of DF in plasma) was 4130 ng·h/mL and the half-life ([5]; rabbit, plasma, po, 2 mg/kg, mean ± SD, read-out: t1/2 of DF in plasma (converted)) was 12.8 h. The Tmax ([5]; rabbit, plasma, po, 2 mg/kg, same groups, mean ± SD) was 2.4 ± 3.2 h, the AUC(0-t) ([5]; rabbit, plasma, po, 2 mg/kg, t = latest time point at which DF was quantifiable, mean ± SD, read-out: AUC0-t of DF in plasma) was 4690 ± 1900 ng·h/mL and the Cmax ([5]; rabbit, plasma, DF-Na oral 2 mg/kg, mixture DF-Na 0.59 mg + HA 5 mg/joint IA, SI-613 5 mg/joint IA, mean ± SD) was 621 ± 372 ng/mL.

From publication PMC5964640, “Pharmacological effects of N-[2-[[2-[2-[(2,6-dichlorophenyl)amino]phenyl]acetyl]oxy]ethyl]hyaluronamide (diclofenac Etalhyaluronate, SI-613), a novel sodium hyaluronate derivative chemically linked with diclofenac” (BMC Musculoskeletal Disorders, 2018)
